Activity calls are given as the source filed them. The rule behind the calls is not given here.
Tests used:
[1] = target: Serine/threonine-protein kinase B-raf (Homo sapiens, UniProt P15056, V600E); test: Inhibition of BRAF V600E mutant (unknown origin) after 20 mins by immunoblotting assay
[2] = target: T1, Tyrosine-protein kinase ABL1 (Homo sapiens, UniProt P00519); test: Inhibition of ABL (unknown origin) by phosphocellulose paper disk assay
[3] = target: T1, Tyrosine-protein kinase ABL1; test: Inhibition of ABL (unknown origin) at 30 nM by phosphocellulose paper disk assay
Bcr/Abl fusion protein = Bcr/Abl fusion protein (Homo sapiens, UniProt P00519); test: Inhibition of BCR-ABL (unknown origin) expressed in mouse BA/F3 cells assessed as reduction in ABL phosphorylation at Y412 residue incubated for 3 hrs by immunoblotting assay; assay type: cell-based
[4] = test system: Serine/threonine-protein kinase B-raf (Homo sapiens), P15056 [V600E]; test: Inhibition of BRAF V600E mutant in human A375 cells assessed as decrease in MEK phosphorylation up to 100 uM after 1 hr by immunoblotting assay; assay type: cell-based
Chain of Serine/threonine-protein kinase B-raf (Homo sapiens), P15056 [V600E] (P15056 whole entry V600E): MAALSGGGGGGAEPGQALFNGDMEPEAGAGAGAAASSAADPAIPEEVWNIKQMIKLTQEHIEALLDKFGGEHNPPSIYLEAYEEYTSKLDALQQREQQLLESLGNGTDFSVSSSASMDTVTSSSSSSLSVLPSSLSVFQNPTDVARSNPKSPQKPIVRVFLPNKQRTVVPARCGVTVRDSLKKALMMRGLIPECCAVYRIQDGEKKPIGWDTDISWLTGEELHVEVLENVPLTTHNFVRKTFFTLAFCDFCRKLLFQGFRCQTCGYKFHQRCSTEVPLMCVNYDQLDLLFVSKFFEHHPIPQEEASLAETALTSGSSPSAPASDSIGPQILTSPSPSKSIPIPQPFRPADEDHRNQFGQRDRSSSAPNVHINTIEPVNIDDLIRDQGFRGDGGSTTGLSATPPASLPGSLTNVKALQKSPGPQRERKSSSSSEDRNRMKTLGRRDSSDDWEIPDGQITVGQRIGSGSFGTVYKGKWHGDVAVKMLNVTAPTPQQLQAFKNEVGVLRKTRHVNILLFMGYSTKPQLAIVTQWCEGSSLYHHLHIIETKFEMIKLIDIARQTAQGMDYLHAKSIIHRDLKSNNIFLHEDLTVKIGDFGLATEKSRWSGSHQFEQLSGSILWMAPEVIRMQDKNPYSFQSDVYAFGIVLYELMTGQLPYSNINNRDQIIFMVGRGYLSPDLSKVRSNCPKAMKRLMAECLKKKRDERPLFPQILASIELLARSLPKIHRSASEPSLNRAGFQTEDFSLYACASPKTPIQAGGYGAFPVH

Chain of Serine/threonine-protein kinase B-raf (P15056 2-766 V600E limits assumed): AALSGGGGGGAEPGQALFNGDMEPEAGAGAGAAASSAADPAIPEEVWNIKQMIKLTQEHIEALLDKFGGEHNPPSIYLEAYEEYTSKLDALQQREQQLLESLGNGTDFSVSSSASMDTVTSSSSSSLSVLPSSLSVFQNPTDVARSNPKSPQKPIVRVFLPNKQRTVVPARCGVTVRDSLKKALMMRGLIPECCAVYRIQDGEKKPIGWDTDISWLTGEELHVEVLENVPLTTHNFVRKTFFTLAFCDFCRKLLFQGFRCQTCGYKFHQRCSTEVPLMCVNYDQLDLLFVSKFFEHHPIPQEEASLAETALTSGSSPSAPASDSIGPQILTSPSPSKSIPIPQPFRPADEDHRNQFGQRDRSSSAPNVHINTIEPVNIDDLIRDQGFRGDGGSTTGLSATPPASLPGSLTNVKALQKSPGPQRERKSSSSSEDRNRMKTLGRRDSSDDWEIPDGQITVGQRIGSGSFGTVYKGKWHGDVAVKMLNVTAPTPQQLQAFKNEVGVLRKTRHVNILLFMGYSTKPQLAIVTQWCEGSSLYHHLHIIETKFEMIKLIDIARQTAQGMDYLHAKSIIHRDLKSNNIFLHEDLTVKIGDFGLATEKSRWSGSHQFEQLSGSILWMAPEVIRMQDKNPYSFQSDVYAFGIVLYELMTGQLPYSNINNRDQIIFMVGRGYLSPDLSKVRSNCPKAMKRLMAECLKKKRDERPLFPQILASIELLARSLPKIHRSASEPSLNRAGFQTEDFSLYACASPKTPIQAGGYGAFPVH
T1 sequence (P00519 whole entry): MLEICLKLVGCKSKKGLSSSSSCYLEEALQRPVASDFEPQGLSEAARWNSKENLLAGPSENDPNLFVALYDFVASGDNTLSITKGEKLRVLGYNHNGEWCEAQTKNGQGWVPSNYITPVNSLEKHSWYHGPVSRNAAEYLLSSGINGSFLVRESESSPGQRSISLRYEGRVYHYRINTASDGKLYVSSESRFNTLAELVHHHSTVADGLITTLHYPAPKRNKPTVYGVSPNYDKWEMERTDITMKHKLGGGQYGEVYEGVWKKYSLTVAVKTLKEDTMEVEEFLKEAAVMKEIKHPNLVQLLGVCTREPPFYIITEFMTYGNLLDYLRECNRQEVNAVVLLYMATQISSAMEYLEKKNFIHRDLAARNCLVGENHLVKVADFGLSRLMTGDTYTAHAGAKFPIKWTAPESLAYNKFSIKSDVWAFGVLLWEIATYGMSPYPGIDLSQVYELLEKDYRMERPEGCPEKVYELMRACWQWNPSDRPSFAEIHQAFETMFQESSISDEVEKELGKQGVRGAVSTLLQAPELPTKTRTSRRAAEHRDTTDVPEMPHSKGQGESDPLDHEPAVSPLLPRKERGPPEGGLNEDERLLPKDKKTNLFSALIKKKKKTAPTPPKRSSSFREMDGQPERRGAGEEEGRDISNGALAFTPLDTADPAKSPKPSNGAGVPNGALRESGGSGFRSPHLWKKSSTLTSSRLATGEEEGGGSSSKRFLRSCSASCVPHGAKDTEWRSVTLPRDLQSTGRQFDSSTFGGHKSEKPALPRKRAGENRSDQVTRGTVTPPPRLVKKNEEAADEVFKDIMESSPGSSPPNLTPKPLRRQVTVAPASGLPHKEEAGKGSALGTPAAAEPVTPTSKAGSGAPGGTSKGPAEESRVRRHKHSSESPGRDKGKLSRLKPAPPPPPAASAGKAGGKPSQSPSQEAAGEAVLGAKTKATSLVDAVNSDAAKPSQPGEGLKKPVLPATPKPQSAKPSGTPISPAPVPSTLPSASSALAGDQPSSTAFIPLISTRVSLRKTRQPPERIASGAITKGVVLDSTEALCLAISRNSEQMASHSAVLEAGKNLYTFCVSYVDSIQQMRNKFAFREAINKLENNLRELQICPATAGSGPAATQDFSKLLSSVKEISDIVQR
Chain of Bcr/Abl fusion protein (P00519 whole entry, the tested form may be a part): as the sequence (P00519 whole entry) above
Chain of Bcr/Abl fusion protein (P11274 whole entry, further chain, the tested form may be a part): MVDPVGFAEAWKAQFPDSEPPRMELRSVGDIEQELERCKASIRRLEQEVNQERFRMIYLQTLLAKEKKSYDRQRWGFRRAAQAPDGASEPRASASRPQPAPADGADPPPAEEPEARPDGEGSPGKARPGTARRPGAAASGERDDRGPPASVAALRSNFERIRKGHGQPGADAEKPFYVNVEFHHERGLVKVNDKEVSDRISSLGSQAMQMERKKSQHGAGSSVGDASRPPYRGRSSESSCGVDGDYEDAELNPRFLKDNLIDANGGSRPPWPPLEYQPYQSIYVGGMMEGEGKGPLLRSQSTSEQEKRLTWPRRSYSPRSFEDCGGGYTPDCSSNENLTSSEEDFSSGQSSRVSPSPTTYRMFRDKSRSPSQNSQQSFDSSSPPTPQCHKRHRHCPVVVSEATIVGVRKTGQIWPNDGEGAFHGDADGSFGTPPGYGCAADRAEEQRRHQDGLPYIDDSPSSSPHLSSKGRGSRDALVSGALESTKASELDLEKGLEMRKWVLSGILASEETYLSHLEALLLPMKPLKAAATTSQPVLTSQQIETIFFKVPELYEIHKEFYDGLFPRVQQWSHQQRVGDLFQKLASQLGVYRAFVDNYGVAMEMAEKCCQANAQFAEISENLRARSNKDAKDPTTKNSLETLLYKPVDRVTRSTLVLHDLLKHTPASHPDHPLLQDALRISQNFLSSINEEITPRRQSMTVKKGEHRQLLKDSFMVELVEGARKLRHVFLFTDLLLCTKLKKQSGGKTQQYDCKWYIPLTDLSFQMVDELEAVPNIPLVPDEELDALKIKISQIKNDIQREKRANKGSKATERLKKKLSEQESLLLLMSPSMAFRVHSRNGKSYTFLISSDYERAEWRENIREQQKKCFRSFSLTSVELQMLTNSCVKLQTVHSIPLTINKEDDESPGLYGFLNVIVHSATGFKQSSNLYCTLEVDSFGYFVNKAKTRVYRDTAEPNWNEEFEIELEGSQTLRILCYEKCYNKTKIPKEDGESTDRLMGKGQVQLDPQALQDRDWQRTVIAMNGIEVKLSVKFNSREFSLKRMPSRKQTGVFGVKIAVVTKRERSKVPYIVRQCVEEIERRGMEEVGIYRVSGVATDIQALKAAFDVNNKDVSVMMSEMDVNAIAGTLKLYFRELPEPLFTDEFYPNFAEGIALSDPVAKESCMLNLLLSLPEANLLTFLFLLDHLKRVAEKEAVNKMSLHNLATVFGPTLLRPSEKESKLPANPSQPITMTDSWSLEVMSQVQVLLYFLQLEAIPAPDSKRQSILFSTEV

| SMILES | IC50 [1] | IC50 [2] | inhibition [3] | IC50 (Bcr/Abl fusion protein) | inhibition [4] |
| --- | --- | --- | --- | --- | --- |
| CC(C)n1nc(C#Cc2cccc3cc(-c4ccc(Cl)cc4)ncc23)c2c(N)ncnc21 | 46 nM | – | – | – | – |
| CC(C)n1nc(C#Cc2cccc3cc(-c4ccc(Cl)c(C(F)(F)F)c4)ncc23)c2c(N)ncnc21 | 87 nM | 22 nM | inactive | – | – |
| CC(C)n1nc(C#Cc2cccc3cc(-c4ccc(CN5CCN(C)CC5)cc4)ncc23)c2c(N)ncnc21 | 51 nM | 7 nM | inactive | 211 nM | – |
| Cc1ccc(-c2cc3cccc(C#Cc4nn(C(C)C)c5ncnc(N)c45)c3cn2)cc1 | 24 nM | – | – | – | – |
| CCn1nc(C#Cc2cccc3cc(-c4cccc(C(F)(F)F)c4)ncc23)c2c(N)ncnc21 | 13 nM | 3.5 nM | inactive | – | inactive |
| Cc1ccc2cc(-c3cccc(C(F)(F)F)c3)ncc2c1C#Cc1nn(C(C)C)c2ncnc(N)c12 | 44 nM | 10 nM | inactive | – | – |

Source: ChEMBL document CHEMBL4229333, “Effects of rigidity on the selectivity of protein kinase inhibitors” (Eur J Med Chem, 2018)
